Reference: patent publication US20010039291A1, “Compositions and methods of treatment for cancer or viral infections” (The Procter & Gamble Company, priority 1995, published 2001)
Values after ≈ are worked out from the molar mass of the structure shown.

Experiments:
[1] = system: Rhinovirus, type A-1; assay: In vitro screening for Rhinovirus; format: cell-based; settings: cell line WI-38
Description: The positive control was A-36683 of Abbot Company, (S,S)-1,2-bis(5-methoxy-2-benzimidazolyl)-1,2-ethanediol. […] (See Schleicher et al, Applied Microbiology, 23, No. 1, 113-116 (1972).

[2] = system: HT29 colon tumor cells; assay: MTT cell viability test, colon tumor cells; format: cell-based; settings: Homo sapiens, HT-29, 120 h, about 5 day incubation, read-out: EC-50 Result
[3] = system: MX1 breast cells; assay: MTT cell viability test, breast tumor cells; format: cell-based; settings: Homo sapiens, 120 h, about 5 day incubation, read-out: EC-50 Result
[4] = system: A549 lung tumor cells; assay: MTT cell viability test, lung tumor cells; format: cell-based; settings: Homo sapiens, 120 h, about 5 day incubation, read-out: EC-50 Result
[5] = system: Human influenza virus, strain AT2/Taiwan/1/64; assay: Anti-viral evaluation with human influenza virus in mice; format: in vivo; settings: oral lavage, observed 21 days after challenge
[6] = system: human tumor colony forming units; assay: In vitro human tumor colony forming units test; format: cell-based; settings: for effectiveness against tumor types / tumors with ≦50% survival: continuous exposure
Description: Solid tumors removed by patients are minced into 2 to 5 mm fragments and immediately placed in McCoy's Medium 5A plus 10% heat inactivated newborn calf serum plus 1% penicillin/streptomycin. Within 4 hours, these solid tumors are mechanically disassociated with scissors, forced through No. 100 stainless steel mesh, through 25 gauge needles, and then washed with McCoy's medium as described above. Ascitic, pleural, pericardial fluids and bone marrow are obtained by standard techniques. The fluid or marrow is placed in sterile containers containing 10 units of preservative free heparin per ml. of malignant fluid or marrow. After centrifugation at 150×g for 10 minutes, the cells are harvested and washed with McCoy's medium plus 10% heat inactivated calf serum. The viability of cell suspensions is determined on a hemocytometer with trypan blue.
Cells to be cloned are suspended in 0.3% agar in enriched CMRL1066 supplemented with 15% heat inactivated horse serum, penicillin (100 units/ml), streptomycin (2 mg/ml), glutamine (2 mM), insulin (3 units/ml), asparagine (0.6 mg/ml), and HEPES buffer (2 mM). For the continuous exposure test each compound is added to the above mixture. Cells are placed in 35 mm petri dishes in a top layer of agar over an underlayer of agar to prevent growth of fibroblasts. Three plates are prepared for each data point. The plates are placed in a 37° C. incubator, and are removed on day 14 for counting of the number of colonies in each plate. The number of colonies (defined as 50 cells) formed in the 3 compound treated plates is compared to the number of colonies formed in the 3 control plates, and the percent colonies surviving at the concentration of compound can be estimated. Three positive control plates are used to determine survival rate. Orthosodium vanadate at 200 μg/ml is used as the positive control. If there is <30% colonies in the positive control when compared to the untreated control, the test is evaluated.

| SMILES | therapeutic index (ratio of the toxic dose to the efficacious dose) [1] | EC50 [2] | EC50 [3] | EC50 [4] | mice survived ([5]; 175 mg/kg dose, saline control no mice survived) | mice survived ([5]; 350 mg/kg dose) | effective concentration [1] | effectiveness against tumors ([6]; 0.5 μg/ml, continuous exposure test) | tumors responding (effective/tested) ([6]; 0.5 μg/ml, single dose experiment) | effectiveness against tumor types ([6]; 5.0 μg/ml) | tumors with ≦50% survival ([6]; 5.0 μg/ml) | effectiveness against tumor types ([6]; 50.0 μg/ml) | tumors with ≦50% survival ([6]; 50.0 μg/ml) |
| --- | --- | --- | --- | --- | --- | --- | --- | --- | --- | --- | --- | --- | --- |
| COc1ccc2nc([C@H](O)[C@@H](O)c3nc4ccc(OC)cc4[nH]3)[nH]c2c1 [A-36683, (S,S)-1,2-bis(5-methoxy-2-benzimidazolyl)-1,2-ethanediol, reference compound] | 1000-3200 |  |  |  |  |  |  |  |  |  |  |  |  |
| COc1cccc2c1C(=O)c1c(O)c3c(c(O)c1C2=O)C[C@@](O)(C(=O)CO)C[C@@H]3O[C@H]1C[C@H](N)[C@H](O)[C@H](C)O1 [Adriamycin, reference compound] |  | 0.00639 µg/mL (≈ 0.0118 µM) | 0.00078 µg/mL (≈ 0.00144 µM) | 0.00373 µg/mL (≈ 0.00686 µM) |  |  |  |  |  |  |  |  |  |
| CCCC1COC(Cn2cncn2)(c2ccc(Cl)cc2Cl)O1 (centres unmarked) [Propiconazole, 1-[2-(2,4-dichlorophenyl)4-propyl-1,3-dioxolan-2-ylmethyl]-1H-1,2,4-triazole] | 1-3 | 0.0331 µg/mL (≈ 0.0967 µM) | 0.0284 µg/mL (≈ 0.083 µM) | 0.113 µg/mL (≈ 0.33 µM) | 40% | 57% | 32 µg/mL | not effective | 0/1 | effective against breast, head and neck, melanoma and ovarian cancers | 5 of 26 | effective against breast, colon, head and neck, lung (non-small cell), melanoma, ovarian, stomach, and uterine cancers | 18 of 25 |
